Key:
[1] = test system: ob/ob mice; assay: Plasma alanine aminotransferase in obesity animal model ob/ob mice; format: in vivo; details: 4 weeks; for plasma alanine aminotransferase, result in words: ob/ob mice
Experimental: 5-week old male C57BL/6 mice (normal mouse group) and ob/ob mice (obesity mouse group) were stabilized and then divided into 6 groups according to the body weight and blood glucose level, followed by feeding with a standard diet and a drug-mixed diet. […] Therefore, in order to supply 10, 100 and 300 mg/kg which are daily target doses of tartrate of Compound 1, diets were formulated by mixing a standard diet with 0.01% by weight, 0.1% by weight and 0.3% by weight of tartrate of Compound 1 and 0.3% by weight of sitagliptin phosphate, respectively. 4 weeks after a supply of diets, animals were dissected and sera were separated. Plasma alanine aminotransferase levels were measured using a blood analyzer (Table 6).

[2] = test system: TGF-β1; assay: TGF-β1 mRNA expression in liver, CCl4-induced acute hepatic damage mouse model; format: in vivo, C57BL/6 mice; details: for TGF-β1 expression inhibition rate (% CCl4 control group) / TGF-β1 expression (normalized by actin): 3 days; for TGF-β1 expression (normalized by actin): CCl4 0.1 ml/kg i.p.; for maximum decrement in TGF-β1 mRNA expression of the liver relative to the CCl4 control group: maximum over the doses tested; for expression of TGF-β1 mRNA of the liver, result in words: vs CCl4 group
Experimental: In order to investigate inhibitory effects of compounds of the present invention on expression of TGF-β1 which is known to play a crucial role in a fibrosis process of hepatocytes in a CCl4-induced acute hepatic damage mouse model, the following experiment was carried out. 7-week old male C57BL/6 mice were stabilized and divided into 9 groups (n=7) according to the body weight, followed by intraperitoneal administration of CCl4 (0.1 ml/kg). The normal control group was administered an olive oil. The control group was orally administered a vehicle solution (0.5% MC) once a day at a dose of 10 ml/kg, at intervals of 24 hours for 3 days. The remaining groups were orally administered once a day tartrate of Compound 1 at doses of 30, 100 and 300 mg/kg, sitagliptin phosphate (prepared according to the method described in WO2004/085378 or WO2005/003135) at doses of 100 and 300 mg/kg, and vildagliptin (Trademax, China) at doses of 100 and 300 mg/kg, respectively, according to the designated groups. 1 hour after the final oral administration, animals were dissected and the excised liver was subjected to evaluation of TGF-β1 mRNA expression. The liver tissue stored in liquid nitrogen was homogenized in a TRIZOL solution and then the total RNAs were extracted. The isolated RNAs were diluted to a concentration of 1 μg/μL in 0.1(v/v) % DEPC (diethyl pyrocarbonate), and then the RNA mixture [2 μg/μL each RNA+2 μL of 0.5 μg/μL oligo d(T)15+up to 15 μL of 0.1% DEPC water] was incubated using a PCR apparatus at 72° C. for 5 minutes, followed by quenching on ice. The mixture [1 μL of PCR nucleotide mix+5 μL of 5×MMLV RT bf.(Promega, M531A)+1 μL of […] M-MLV reverse] was prepared, and then subjected to elongation at 42° C. for 60 minutes, denaturation at 95° C. for 5 minutes and quenching at 8° C. to synthesize cDNAs which were stored at −20° C. until subsequent use. In order to carry out RT-PCR, the mixture [1 μL of 20 pmol each Primer+9.5 μL of Nuclease-free water] was prepared and then 2 μL of each cDNA was placed in sterile PCR tubes to which 12.5 μL of remix Taq™ (RR003A, TaKaRa) was then added, followed by mixing. PCR was carried out under the following conditions (Table 4), using Thermal Cycler (PTC-200, MJ Research). PCT products were electrophoresed and analyzed using an Image Analyzer (Vilber Lourmat). Using β-actin expression, the expression of a target gene TGF-β1 was subjected to normalization (FIG. 11).

[3] = test system: HepG2 cells; assay: Free fatty acid-induced intracellular fat accumulation, Nile Red staining; format: cell-based, human; details: for free fatty acid-induced fat accumulation in hepatocytes, result in words: FIG. 10; for inhibition at 1 µM: Homo sapiens, HepG2, 0.5 mM free fatty acid, 24 hours, read-out: inhibitory effects on free fatty acid-induced fat accumulation
Experimental: By a combined treatment of free fatty acid and a drug, inhibitory effects of individual drugs on intracellular fat accumulation were quantified using a triglyceride staining method. The human hepatoma cell line, HepG2 cells were cultured in a minimum essential medium (MEM) containing 10(v/v) % fetal bovine serum for 48 hours. […] For the negative control group, a MEM containing 1(v/v) % bovine serum albumin was treated with 0.1(v/v) % dimethyl sulfoxide with no addition of free fatty acid. After the culture was complete, the medium was removed and the cells were washed with a phosphate buffer. […] After the staining was complete, the supernatant was discarded and replaced with a phosphate buffer, followed by measurement of fluorescence intensities under conditions of a 488 nm excitation wavelength and a 550 nm emission wavelength. Then, in order to correct a deviation according to the cell count, a phosphate buffer containing 10 μM resazurin (Sigma) dissolved therein was added to the same well. Thereafter, before and after the reaction at 37° C. for 1 hour under light-shielded conditions, fluorescence intensities were measured using a fluorometer under conditions of a 535 nm excitation wavelength and a 580 nm emission wavelength, whereby an increase in fluorescence intensity due to resorufin reduced and formed by the intracellular mitochondrial activity was measured. Using the value of a fluorescence intensity of Nile Red corrected in terms of an increase in fluorescence intensity due to the reduction of resazurin, the experimental results were expressed as a percentage for the fat accumulation increased by a treatment with free fatty acid, as compared to the negative control group.

[4] = standard diet with 0.3% drug (target 300 mg/kg/day)
[5] = standard diet with 0.01% drug (target 10 mg/kg/day)
[6] = standard diet with 0.1% drug (target 100 mg/kg/day)

Row | SMILES | plasma alanine aminotransferase, result in words [1] | ALT increase inhibition (%) relative to ob/ob mouse control group [1, 4] [%] | ALT increment (%) relative to normal mouse group [1, 4] [%] | TGF-β1 expression inhibition rate (% CCl4 control group) ([2]; 100 mg/kg oral once a day) [%] | TGF-β1 expression (normalized by actin) ([2]; 100 mg/kg oral once a day) | TGF-β1 expression inhibition rate (% CCl4 control group) ([2]; 300 mg/kg oral once a day) [%] | TGF-β1 expression (normalized by actin) ([2]; 300 mg/kg oral once a day) | maximum decrement in TGF-β1 mRNA expression of the liver relative to the CCl4 control group [2] [%] | expression of TGF-β1 mRNA of the liver, result in words [2] | free fatty acid-induced fat accumulation in hepatocytes, result in words [3] | inhibition at 1 µM [3] [%] | ALT increase inhibition (%) relative to ob/ob mouse control group [1, 5] [%] | ALT increment (%) relative to normal mouse group [1, 5] [%] | ALT increase inhibition (%) relative to ob/ob mouse control group [1, 6] [%] | ALT increment (%) relative to normal mouse group [1, 6] [%] | TGF-β1 expression inhibition rate (% CCl4 control group) ([2]; 30 mg/kg oral once a day) [%] | TGF-β1 expression (normalized by actin) ([2]; 30 mg/kg oral once a day)
1 | N[C@@H](CC(=O)N1CCn2c(nnc2C(F)(F)F)C1)Cc1cc(F)c(F)cc1F [sitagliptin phosphate, sitagliptin] | reduction | 15 | 869 | 41 | 1.13 ± 0.19 | −17 | 1.26 ± 0.13 | 41 | decreased expression | dose-dependent inhibition | 28.7 ± 3.2 |  |  |  |  |  | 
2 | CC(C)(C)OC[C@@H]1C(=O)NCCN1C(=O)C[C@H](N)Cc1cc(F)c(F)cc1F [tartrate of Compound 1, (R)-4-[(R)-3-amino-4-(2,4,5-trifluorophenyl)-butanoyl]-3-(t-butoxymethyl)piperazin-2-one] | reduction | 27 | 757 | 128 | 0.93 ± 0.10 | 100 | 1.00 ± 0.13 | 135 | normalization | dose-dependent inhibition | 28.7 ± 3.2 | 43 | 610 | 39 | 653 | 135 | 0.92 ± 0.13

Reference: patent publication US20130072459A1, “PHARMACEUTICAL COMPOSITION FOR THE PREVENTION OR THE TREATMENT OF NON-ALCOHOLIC FATTY LIVER DISEASE AND THE METHOD FOR PREVENTION OR TREATMENT OF NON-ALCOHOLIC FATTY LIVER DISEASE USING THE SAME” (priority 2010, published 2013)
